Here are results for nine compounds from US9309222B2, “Phenyl linked quinolinyl modulators of RORγt” (Janssen Pharmaceutica NV, priority 2012, dated 2016).

Assay [1] deals with T1, human RORγt ligand binding domain (RORγt LBD) (Homo sapiens, UniProt P51449).
T1 construct: His-tag (N); TurboTEV protease cleavage site (ENLYFQG) (N); made in house; host or cells: E. coli (pHIS1, modified pET vector)
T1 sequence (P51449 with tags, fused parts or gaps): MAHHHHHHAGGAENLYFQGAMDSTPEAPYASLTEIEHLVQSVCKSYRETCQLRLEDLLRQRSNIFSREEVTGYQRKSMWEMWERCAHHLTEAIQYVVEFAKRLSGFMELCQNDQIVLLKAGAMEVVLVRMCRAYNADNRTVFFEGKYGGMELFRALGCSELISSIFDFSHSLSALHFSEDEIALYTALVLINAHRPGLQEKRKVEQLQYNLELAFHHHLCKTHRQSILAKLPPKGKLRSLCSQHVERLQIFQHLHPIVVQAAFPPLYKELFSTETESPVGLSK
Put plainly: RORγt ThermoFluor assay (thermal shift, ligand binding affinity). The following applies: estimated from concentration response of thermal shift. An outline of the steps:
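Thermal shift of 0.065 mg/mL RORγt with 60 μM 1,8-ANS in 100 mM Hepes pH 7.0, 10 mM NaCl, 2.5 mM GSH, 0.002% Tween-20. Compounds in 1:2 series from 10 mM DMSO stock. Dye fluorescence (500 nm emission) tracked versus temperature; ΔTm used to derive KD.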

For another assay, the target named is T2, human RORγt LBD (Homo sapiens, UniProt P51449).
T2 construct: expressed in transfected cells
T2 sequence (P51449 258-518): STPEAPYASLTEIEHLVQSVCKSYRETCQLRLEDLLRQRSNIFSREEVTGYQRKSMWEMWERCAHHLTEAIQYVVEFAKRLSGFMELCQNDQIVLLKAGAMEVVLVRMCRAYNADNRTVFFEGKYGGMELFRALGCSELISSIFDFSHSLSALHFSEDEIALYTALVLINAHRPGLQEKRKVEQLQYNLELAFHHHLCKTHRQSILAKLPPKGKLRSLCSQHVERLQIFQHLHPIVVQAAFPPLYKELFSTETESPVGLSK
Description: RORγt reporter assay (GAL4-RORγt LBD luciferase in HEK293T cells). Format: cell-based. The following applies: for IC50: 24 hours compound treatment; for inhibition at 6 µM: HEK-293T, read-out: RORγt reporter Assay, % inhibition @ 6 μM, HEK293T cells, 6 μM compound. An outline of the steps:
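HEK293T cells transiently co-transfected with pBIND (GAL4 DBD fused to wild-type human RORγt LBD, plus SV40-driven renilla luciferase) and pGL4.31 GAL4-responsive firefly luciferase reporter. Plated in phenol-red-free DMEM with 5% lipid-reduced FCS and treated with compound for 24 h. Firefly/renilla luminescence ratio plotted against compound concentration.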

Assay [2] deals with IL-17 production by CD4 T cells. Put plainly: Human Th17 assay (IL-17 production by CD4 T cells under Th17 differentiation conditions). The following applies: IL-17 in supernatant after 3 days. The assay is classed as cell-based. An outline of the steps: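 Primary CD4+ T cells from healthy-donor PBMC, preincubated 1 h with titrated compound (0.2% DMSO), then activated with anti-CD3/CD28 beads plus anti-IL4, anti-IFNγ, IL1β, IL23, IL6, TGFβ and IL2.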

Molecules are shown by their SMILES. Structures can show the parent of a compound that is named as a salt.

For the compound `Cc1cc(C(O)(c2ccnc(C(F)(F)F)c2)c2cncn2C)cc2c(Cl)c(-c3ccccc3)c(Cl)nc12` (stereo not shown) [Example 160, (2,4-Dichloro-8-methyl-3-phenylquinolin-6-yl)(1-methyl-1H-imidazol-5-yl)(2-(trifluoromethyl)pyridin-4-yl)methanol•TFA], the Kd in assay [1] was 6.1 nM. The IC50 came out at 120 nM against human RORγt LBD (HEK293T cells) and 690 nM in assay [2] (Homo sapiens, CD4+ T, 72 h). Also, the inhibition at 6 µM on human RORγt LBD was found to be 97%.

As to `Cn1cncc1C(O)(c1ccc(Cl)cc1)c1cc2c(Cl)c(-c3ccccc3)c(Cl)nc2cc1F` (stereo not shown) [Example 161, (4-Chlorophenyl)(2,4-dichloro-7-fluoro-3-phenylquinolin-6-yl)(1-methyl-1H-imidazol-5-yl)methanol•TFA], in assay [1], the Kd is 78 nM. In addition, the IC50 on human RORγt LBD (HEK293T cells) came out at 170 nM; in assay [2] (Homo sapiens, CD4+ T, 72 h), 360 nM. The inhibition at 6 µM at human RORγt LBD was determined as 104%.

As to `Cn1cncc1C(O)(c1ccncc1)c1ccc2nc(C(F)(F)F)c(-c3ccccc3)c(C(F)(F)F)c2c1` (stereo not shown) [Example 164, (1-Methyl-1H-imidazol-5-yl)(3-phenyl-2,4-bis(trifluoromethyl)quinolin-6-yl)(pyridin-4-yl)methanol•TFA], the Kd in assay [1] is 1.2 nM. Moreover, the 50% inhibitory concentration (IC50) at human RORγt LBD (HEK293T cells) stood at 18 nM; in assay [2] (Homo sapiens, CD4+ T, 72 h) it was 26 nM. For the same compound, at human RORγt LBD, the inhibition at 6 µM was 98%.

In the case of `O=C(O)C(F)(F)F.OC(c1cccnc1)(c1cccc(Cl)c1)c1ccc2nc(C(F)(F)F)c(-c3ccccc3)c(C(F)(F)F)c2c1` (stereo not shown) [Example 165, (3-Chlorophenyl)(3-phenyl-2,4-bis(trifluoromethyl)quinolin-6-yl)(pyridin-3-yl)methanol•TFA], the Kd in assay [1] was 2.4 nM. Further, the “RORγt reporter Assay, % inhibition @ 6 μM” value at human RORγt LBD (HEK293T cells, 6 μM compound) is reported as 98%. For the same compound, the results for the IC50 (against human RORγt LBD (HEK293T cells); in assay [2]) were 48 nM and 97 nM, respectively.

As for `[O-][n+]1cccc(C(O)(c2cccc(Cl)c2)c2ccc3nc(C(F)(F)F)c(-c4ccccc4)c(C(F)(F)F)c3c2)c1` (stereo not shown) [Example 166, 3-((3-Chlorophenyl)(hydroxy)(3-phenyl-2,4-bis(trifluoromethyl)quinolin-6-yl)methyl)pyridine 1-oxide•TFA], the dissociation constant Kd in assay [1] is 36 nM. Also, the IC50 on human RORγt LBD (HEK293T cells) stood at 180 nM; in assay [2] (Homo sapiens, CD4+ T, 72 h), 150 nM. The inhibition at 6 µM on human RORγt LBD turned out to be 103%.

Regarding `OC(c1ccccc1)(c1cccnc1)c1ccc2nc(C(F)(F)F)c(-c3ccccc3)c(C(F)(F)F)c2c1` (stereo not shown) [Example 170, Phenyl(3-phenyl-2,4-bis(trifluoromethyl)quinolin-6-yl)(pyridin-3-yl)methanol], the Kd in assay [1] is 4.2 nM. Moreover, the IC50 worked out at 35 nM against human RORγt LBD (HEK293T cells) and 96 nM in assay [2] (Homo sapiens, CD4+ T, 72 h). Further, the inhibition at 6 µM at human RORγt LBD came out at 98%.

`OC(c1ccc(C(F)(F)F)cc1)(c1cccnc1)c1ccc2nc(Cl)c(-c3ccccc3)c(Cl)c2c1` (stereo not shown) [Example 171, (2,4-Dichloro-3-phenylquinolin-6-yl)(pyridin-3-yl)(4-(trifluoromethyl)phenyl)methanol•TFA]: in assay [1], the equilibrium dissociation constant (Kd) was 140 nM. Also, the IC50 came out at 320 nM on human RORγt LBD (HEK293T cells) and 300 nM in assay [2] (Homo sapiens, CD4+ T, 72 h). Besides, the inhibition at 6 µM at human RORγt LBD is 85%.

Regarding `Cn1nncc1C(O)(c1ccc2nc(C(F)(F)F)c(-c3ccccc3)c(C(F)(F)F)c2c1)c1cnnn1C` [Example 182, Bis(1-methyl-1H-1,2,3-triazol-5-yl)(3-phenyl-2,4-bis(trifluoromethyl)quinolin-6-yl)methanol], the equilibrium dissociation constant (Kd) in assay [1] is 1.5 nM. The inhibition at 6 µM at human RORγt LBD worked out at 94%. In addition, the IC50 in assay [2] (Homo sapiens, CD4+ T, 72 h) was 7 nM.

Turning to `Cn1cncc1C(O)(c1ccc(Cl)cc1)c1ccc2nc(Cl)c(-c3cccc(Cl)c3)c(Cl)c2c1` (stereo not shown) [Example 187, (4-Chlorophenyl)(2,4-dichloro-3-(3-chlorophenyl)quinolin-6-yl)(1-methyl-1H-imidazol-5-yl)methanol], the Kd in assay [1] was 100 nM. Further, the inhibition at 6 µM at human RORγt LBD was determined as 73%. This compound showed an IC50 in assay [2] (Homo sapiens, CD4+ T, 72 h) of more than 6000 nM.

The Kd is the concentration at which binding is half-saturated. As a reminder, the IC50 is the concentration needed to halve the response being measured. High values mean weaker potency in that assay, low ones greater potency in that assay. As a reminder, the inhibition is the drop in the measured response relative to a control, in per cent.
